The values below come from patent US9540369B2, “Use of kinase inhibitors to increase the susceptibility of gram positive bacteria to beta lactam antibiotics” (Wisconsin Alumni Research Foundation, priority 2014, dated 2017).

Structures are written as SMILES. Entries after “also recorded” stand apart in the source; their conditions may differ.

Data set [1] relates to L. monocytogenes. Briefly: Broth growth curves of L. monocytogenes with antibiotic in presence or absence of kinase inhibitor. To be noted: for inhibition of growth in a β-lactam synergistic dependent manner: ceftriaxone; for synergy with ceftriaxone against L. monocytogenes: AIA drugs at 10 μM. The class given is cell-based, Listeria monocytogenes.
The subject of data set [2] is Methicillin-resistant S. aureus (strain USA300). The data set is described as follows: Broth growth curves of Methicillin-resistant S. aureus (USA300) with antibiotic in presence or absence of kinase inhibitor. The class given is cell-based, Staphylococcus aureus.
Data set [3] concerns PrkA. The data set is described as follows: In vitro protein phosphorylation (autophosphorylation and MBP phosphorylation), PrkA. It counts as biochemical, L. monocytogenes. As to conditions: 1 μM, 10 μM or 100 μM inhibitor.
Protocol: (§1) In vitro protein phosphorylation. […] To investigate substrate-level phosphorylation, ˜10 μg of myelin basic protein (Novatein Biosciences, Woburn, Mass.) were added to the reaction mixture described above and incubated at room temperature, overnight. The reactions were terminated by adding 5X SDS loading buffer. Samples were fractionated by SDS-PAGE, fixed and dried, and analyzed by autoradiography.
A further data set has as its system Lmo0618. The data set is described as follows: In vitro protein phosphorylation (autophosphorylation and MBP phosphorylation), Lmo0618. The class given is biochemical, L. monocytogenes. As to conditions: 1 μM, 10 μM or 100 μM inhibitor.
Data set [4] relates to L. monocytogenes. The class given is cell-based, Listeria monocytogenes. To be noted: β-lactam dependent growth inhibition.
The test system of a further data set is M. smegmatis. Briefly: M. smegmatis growth curves with or without meropenem. It counts as cell-based, Mycobacterium smegmatis. As to conditions: 10 μM inhibitor. The method, then:
Various AIA drugs were administered at 10 μM concentration to M. smegmatis, L. monocytogenes, and S. aureus.

For data set [5], the system named is PrkA. Briefly: Kinase-Glo assay, PrkA. It counts as biochemical, L. monocytogenes.
The test system of another data set is Stk1. Briefly: Kinase-Glo assay, Stk1. The class given is biochemical, S. aureus. As to conditions: 0-40 μM inhibitor, 20 μM ATP, 10 μM MBP.
Another data set concerns the target PknB (Mycobacterium tuberculosis, UniProt P9WI81).
In data set [6] the target is PrkA (PASTA kinase of L. monocytogenes; kinase domain, GST fusion) (Listeria monocytogenes, UniProt A0A0H3GI69). The data set is described as follows: biochemical.
A further data set has as its system zebrafish (Danio rerio). The data set is described as follows: Zebrafish toxicity assay. To be noted: administered in their environment for five days.
The subject of a further data set is MSRA. To be noted: β-lactam dependent growth inhibition.
The mark [7] stands for this setting: 0-40 μM inhibitor, 20 μM ATP, 10 μM MBP.

Protocol for Lmo0618: as §1
Protocol for zebrafish (Danio rerio): Human kinase inhibitors were administered to zebrafish in their environment for five days.

With `Cc1ncc(-c2ccnc(Nc3ccc(S(C)(=O)=O)cc3)n2)n1C(C)C` [AZD5438], in the data set with L. monocytogenes [1] (50 μM AZD5438), the “inhibition of growth in a β-lactam synergistic dependent manner” value is “capable of inhibiting L. monocytogenes growth”. Further, the “synergy with β-lactam antibiotics against S. aureus” value in data set [2] (AZD5438, data not shown) is listed as “not S. aureus”. Moreover, the “inhibition of PrkA autophosphorylation and substrate level (MBP) phosphorylation” value with PrkA [3] was “specifically inhibits PrkA”. Moreover, in the data set on Lmo0618, the “inhibition of Lmo0618 phosphorylation activity” value was “not inhibiting”. In addition, the “effective dose against L. monocytogenes” value in the data set on L. monocytogenes [4] came to 10 µM.

Consider `CCn1c(-c2nonc2N)nc2c(C#CC(C)(C)O)ncc(OC[C@@H]3CCCN3)c21` [GSK614526A], for which the “synergy with ceftriaxone against L. monocytogenes” value (from here on “synergy with ceftriaxone”) in the data set with L. monocytogenes [1] is “can inhibit growth in concert with ceftriaxone”. Moreover, in the data set on M. smegmatis, the “synergistic activity with meropenem against M. smegmatis” value (shortened to “synergistic activity with meropenem”) is on record as “None”.

The term IC50 denotes the midpoint of a concentration-inhibition curve. A higher IC50 goes with weaker potency in that assay. On to `CCn1c(-c2nonc2N)nc2c(C#CC(C)(C)O)ncc(OC[C@H]3CCCNC3)c21` [GSK690693, 4-(2-(4-amino-1,2,5-oxadiazol-3-yl)-1-ethyl-7-{[(3S)-3-piperidinylmethyl]oxy}-1H-imidazo[4,5-c]pyridin-4-yl)-2-methyl-3-butyn-2-ol], for which the “synergy with ceftriaxone” value with L. monocytogenes [1] was “can inhibit growth in concert with ceftriaxone”. Moreover, the “inhibition of growth in a β-lactam synergistic dependent manner” value in the data set on L. monocytogenes [1] (100 μM GSK690693) is “inhibited L. monocytogenes growth in a β-lactam synergistic dependent manner”. For the same compound, the “effective dose against L. monocytogenes” value with L. monocytogenes [4] was 10 µM. Also, the “inhibition of PrkA enzymatic activity in vitro” value with PrkA [5] (setting [7]) is on record as “can inhibit”. Further, the “inhibition for PrkA compared to Stk1” value in the data set on PrkA [5] (biochemical) was “four-fold increase in inhibition”. Moreover, in the data set on Stk1, the “inhibition of Stk1 enzymatic activity in vitro” value is reported as “can inhibit”. Besides, the “synergistic activity with meropenem” value in the data set with M. smegmatis is given as “exhibits synergy; also recorded: can work to inhibit growth synergistically with meropenem”. For the same compound, on PknB (setting [7]), the “inhibition of PknB enzymatic activity in vitro” value is given as “can inhibit”. For the same compound, the “inhibition for PknB compared to Stk1” value at PknB (biochemical) is reported as “four-fold increase in inhibition”. Moreover, in [6], the IC50 was found to be 1200 nM. Besides, in the data set with zebrafish (Danio rerio), the toxicity in zebrafish result is given as “does not induce toxicity”.

In the case of `CCn1c(-c2nonc2N)nc2c(C#CC(C)(C)O)nc(OC[C@@H](N)c3ccccc3)cc21` [GSK938890A], the “synergy with ceftriaxone” value with L. monocytogenes [1] is on record as “can inhibit growth in concert with ceftriaxone”. Also, the “effective dose against L. monocytogenes” value in the data set with L. monocytogenes [4] was determined as 10 µM. Also, the “synergistic activity with meropenem” value in the data set on M. smegmatis is recorded as “None”.

Consider `CCn1c(-c2nonc2N)nc2c(C#CC(C)(C)O)nc(OC[C@H](N)c3ccccc3)cc21` [GSK943949A], for which the “synergy with ceftriaxone” value in the data set on L. monocytogenes [1] was “can inhibit growth in concert with ceftriaxone”. For the same compound, the “synergistic activity with meropenem” value with M. smegmatis was “None”.

For the compound `CCn1c(-c2nonc2N)nc2c(C#CC(C)(C)O)nc(OCCNC)cc21` [GSK949675A], the “synergy with ceftriaxone” value in the data set on L. monocytogenes [1] was “can inhibit growth in concert with ceftriaxone”. Also, in the data set on L. monocytogenes [4], the “effective dose against L. monocytogenes” value was found to be 10 µM. In addition, in the data set with M. smegmatis, the “synergistic activity with meropenem” value is recorded as “None”. The “effective dose against MSRA” value with MSRA stood at 10 µM.

For `CCn1c(-c2nonc2N)nc2c(C#CC(C)(C)O)nc(O[C@@H](CN)c3ccccc3)cc21.O=C(O)C(F)(F)F` [GSK1007102B], in the data set on L. monocytogenes [1], the “synergy with ceftriaxone” value was “can inhibit growth in concert with ceftriaxone”. The “synergistic activity with meropenem” value in the data set on M. smegmatis is reported as “showing such a synergistic effect”. The “effect on M. smegmatis growth in the absence of a β-lactam” value in the data set with M. smegmatis (no additional drugs) is recorded as “minor affect on growth; also recorded: shows inhibition in the absence of a β-lactam”.

As for `CCn1c(-c2nonc2N)nc2c(C#CC(C)(C)O)nc(CN3CCCC3)cc21` [GW1000163A], in the data set with L. monocytogenes [1], the “synergy with ceftriaxone” value is listed as “did not exhibit such synergistic activity”. For the same compound, in the data set on M. smegmatis, the “synergistic activity with meropenem” value is reported as “None”.

As for `O=c1c2ccccc2[nH]c(=S)n1CCN1CCC(=C(c2ccc(F)cc2)c2ccc(F)cc2)CC1` [diacylglycerol kinase inhibitor II], in the data set on zebrafish (Danio rerio), the toxicity in zebrafish entry is “highly toxic”.

As to `CN[C@@H]1C[C@H]2O[C@@](C)([C@@H]1OC)n1c3ccccc3c3c4c(c5c6ccccc6n2c5c31)C(=O)NC4` [staurosporine], the “susceptibility to vancomycin or kanamycin” value in the data set on L. monocytogenes [1] (10 μM staurosporine) is listed as “unaffected”. Further, the “increase in susceptibility to ceftriaxone upon overexpression of prkA” value in the data set on L. monocytogenes [1] (prkA^theo strain, 2 mM theophylline, 10 μM staurosporine) was 10 fold. For the same compound, the “bacterial morphology by immunofluorescence microscopy” value in the data set on L. monocytogenes [1] (staurosporine combined with β-lactam antibiotics) is “grossly disrupted bacterial morphology”. Also, in the data set with L. monocytogenes [1] (staurosporine, data not shown), the sensitization to lysozyme result was “increased the sensitization”. Besides, the “increase in susceptibility to ceftriaxone” value in the data set on L. monocytogenes [1] (wild type, 10 μM staurosporine) is 100 fold. Further, in data set [2] (10 μM staurosporine), the “S. aureus susceptibility to ceftriaxone or other β-lactam or non-β-lactam antibiotics” value was “unaffected”.
